# Reference: patent publication US8859021B2, “Skin appearance through gene manipulation” (Sytheon, priority 2007, dated 2014)
# Columns and labels:
# skin = settings: in vivo
# EpiDerm tissues = settings: retinol 10 μg/ml, Sytenol A 5 μg/ml, 2 days
smiles,measurement,setting,value
"C=C[C@@](C)(/C=C/c1ccc(O)cc1)CCC=C(C)C [Sytenol A, bakuchiol]",Primary skin irritation (edema or erythema),skin,NON-PRIMARY IRRITANT
same,Laminins up-regulation by Sytenol A relative to retinol,EpiDerm tissues,almost three-fold more than retinol
same,Lecithin retinol acyltransferase up-regulation by Sytenol A relative to retinol,EpiDerm tissues,almost seven-fold higher than by retinol
same,"Fold Change, ACTN1 Alpha-actinin-1 (Alpha-actinin cytoskeletal isoform) (Table 8)",EpiDerm tissues; vs 0.1% DMSO control,+2.70 fold
same,"Fold Change, ACTN1 Alpha-actinin-1 (Alpha-actinin cytoskeletal isoform) (Table 9)",EpiDerm tissues; vs 0.1% DMSO control,+2.70 fold
same,"Fold Change, ACTN4 Alpha-actinin-4(F-actin cross-linking protein) (Table 8)",EpiDerm tissues; vs 0.1% DMSO control,+3.13 fold
same,"Fold Change, ACTN4 Alpha-actinin-4(F-actin cross-linking protein) (Table 9)",EpiDerm tissues; vs 0.1% DMSO control,+3.13 fold
same,"Fold Change, AFAP1L2 Actin filament-associated protein 1-like 2",EpiDerm tissues; vs 0.1% DMSO control,+3.84 fold
same,"Fold Change, C16orf30 Claudin-like protein 24",EpiDerm tissues; vs 0.1% DMSO control,No effect
same,"Fold Change, CDH1 Epithelia-cadherin precursor (E-cadherin) (Table 7)",EpiDerm tissues; vs 0.1% DMSO control,+21.56 fold
same,"Fold Change, CDH1 Epithelial-cadherin precursor (E-cadherin) E-Cad/CTF1 (Table 9)",EpiDerm tissues; vs 0.1% DMSO control,+21.56 fold
same,"Fold Change, CDH3 Cadherin-3-precursor (P-cadherin)",EpiDerm tissues; vs 0.1% DMSO control,+7.47 fold
same,"Fold Change, CDH19 Cadherin-19-precursor",EpiDerm tissues; vs 0.1% DMSO control,No effect
same,"Fold Change, CDH24 Cadherin-24-precursor",EpiDerm tissues; vs 0.1% DMSO control,+2.28 fold
same,"Fold Change, CDK5R1 Tau protein kinase II 23 kDa subunit (Cyclin-dependent kinase 5 activator 1 precursor (CDK5 activator 1))",EpiDerm tissues; vs 0.1% DMSO control,+2.66 fold
same,"Fold Change, CLDN4 Claudin-4 (Clostridium perfringens enterotoxin receptor) (CPE-R)",EpiDerm tissues; vs 0.1% DMSO control,+5.92 fold
same,"Fold Change, CLDN5 Claudin-5 (Transmembrane protein deleted in VCFS)",EpiDerm tissues; vs 0.1% DMSO control,No effect
same,"Fold Change, CLDN6 Claudin-6 (Skullin 2)",EpiDerm tissues; vs 0.1% DMSO control,No effect
same,"Fold Change, CLDN7 Claudin-7 (CLDN-7)",EpiDerm tissues; vs 0.1% DMSO control,+46.09 fold
same,"Fold Change, CLDN11 Claudin-11 (Oligodendrocyte-specific protein)",EpiDerm tissues; vs 0.1% DMSO control,−4.01 fold
same,"Fold Change, CLDN12 Claudin-12",EpiDerm tissues; vs 0.1% DMSO control,+2.00 fold
same,"Fold Change, CLDN16 Claudin-16 (Paracellin-1) (PCLN-1)",EpiDerm tissues; vs 0.1% DMSO control,+11.62 fold
same,"Fold Change, COL1A2 Collagen alpha-2 (I) chain precursor (Alpa-2 type I collagen)",EpiDerm tissues; vs 0.1% DMSO control,+1.85 fold
same,"Fold Change, COL3A1 Collagen alpha-1 (III) chain precursor",EpiDerm tissues; vs 0.1% DMSO control,No effect
same,"Fold Change, COL9A2 Collagen alpha-2 (IX) chain precursor",EpiDerm tissues; vs 0.1% DMSO control,+6.67 fold
same,"Fold Change, COL9A3 Collagen alpha-3 (IX) chain precursor",EpiDerm tissues; vs 0.1% DMSO control,+5.76 fold
same,"Fold Change, CTHRC1 Collagen triple helix repeat-containing protein 1 precursor",EpiDerm tissues; vs 0.1% DMSO control,−10.17 fold
same,"Fold Change, CTNNAL1 Alpha-catenin-related protein (ACRP) (Table 8)",EpiDerm tissues; vs 0.1% DMSO control,No effect
same,"Fold Change, CTNNAL1 Alpha-catenin-related protein (ACRP) (Table 9)",EpiDerm tissues; vs 0.1% DMSO control,No effect
same,"Fold Change, CYP26B1 Cytochrome P450 26B1 (Retinoic acid-metabolizing cytochrome)",EpiDerm tissues; vs 0.1% DMSO control,−1.74 fold
same,"Fold Change, Connective tissue growth factor precursor (Hypertrophic chondrocyte-specific protein 24)",EpiDerm tissues; vs 0.1% DMSO control,−2.56 fold
same,"Fold Change, DHRS9 NADP-dependent retinol dehydrogenase/reductase",EpiDerm tissues; vs 0.1% DMSO control,+11.56 fold
same,"Fold Change, DSC1 Desmocollin-1-precursor (DG2/DG3)",EpiDerm tissues; vs 0.1% DMSO control,−5.96 fold
same,"Fold Change, DSC2 Desmocollin-2-precursor (Desmocollin-3)",EpiDerm tissues; vs 0.1% DMSO control,+4.68 fold
same,"Fold Change, DSG1 Desmoglein-1-precursor (DG1)",EpiDerm tissues; vs 0.1% DMSO control,−2.26 fold
same,"Fold Change, DSG2 Desmoglein-2-precursor",EpiDerm tissues; vs 0.1% DMSO control,+20.15 fold
same,"Fold Change, DSG3 Desmoglein-3-precursor",EpiDerm tissues; vs 0.1% DMSO control,+4.25 fold
same,"Fold Change, DSG4 Desmoglein-4-precursor",EpiDerm tissues; vs 0.1% DMSO control,+10.59 fold
same,"Fold Change, ECM1 Extracellular matrix protein 1 precursor",EpiDerm tissues; vs 0.1% DMSO control,+2.00 fold
same,"Fold Change, ECM2 Extracellular matrix protein 2 precursor",EpiDerm tissues; vs 0.1% DMSO control,+4.10 fold
same,"Fold Change, ELA3B Elastase-3B precursor (Elastase IIIB)",EpiDerm tissues; vs 0.1% DMSO control,+6.58 fold
same,"Fold Change, F11R Junctional adhesion molecule 1 (JAM-1)",EpiDerm tissues; vs 0.1% DMSO control,+8.92 fold
same,"Fold Change, FLNB Actin-binding-like protein",EpiDerm tissues; vs 0.1% DMSO control,+5.87 fold
same,"Fold Change, FLRT2 Fibronectin-like-domain-containing leucine-rich transmembrane protein 2",EpiDerm tissues; vs 0.1% DMSO control,No effect
same,"Fold Change, FLRT3 Fibronectin-like-domain-containing leucine-rich transmembrane protein 3",EpiDerm tissues; vs 0.1% DMSO control,+6.18 fold
same,"Fold Change, FNDC7 Fibronectin type III domain containing 7",EpiDerm tissues; vs 0.1% DMSO control,+9.14 fold
same,"Fold Change, Fibroblast growth factor 9 (HBGF-9)",EpiDerm tissues; vs 0.1% DMSO control,−2.34 fold
same,"Fold Change, Fibroblast growth factor 23 precursor (FGF-23) (Tumor-derived hypophosphatemia-inducing factor)",EpiDerm tissues; vs 0.1% DMSO control,−3.01 fold
same,"Fold Change, Fibroblast growth factor receptor 2 precursor (FGFR-2)",EpiDerm tissues; vs 0.1% DMSO control,+8.93 fold
same,"Fold Change, Fibroblast growth factor-binding protein 1 precursor (FGF-BP1)",EpiDerm tissues; vs 0.1% DMSO control,+2.69 fold
same,"Fold Change, GSN Gelsolin precursor (Actin-depolymerizing factor) (ADF)",EpiDerm tissues; vs 0.1% DMSO control,+3.19 fold
same,"Fold Change, HAS2 Hyaluronan synthase 2",EpiDerm tissues; vs 0.1% DMSO control,No effect
same,"Fold Change, HAS3 Hyaluronan synthase 3",EpiDerm tissues; vs 0.1% DMSO control,+19.29 fold
same,"Fold Change, HS3ST1 Heparan sulfate 3-O-sulfotransferase 1 (Table 6)",EpiDerm tissues; vs 0.1% DMSO control,+24.91 fold
same,"Fold Change, HS6ST1 Heparan sulfate 6-O-sulfotransferase 1",EpiDerm tissues; vs 0.1% DMSO control,+1.79 fold
same,"Fold Change, HYAL1 Hyaluronidase-1-precursor",EpiDerm tissues; vs 0.1% DMSO control,No effect
same,"Fold Change, Heparin-binding EGF-like growth factor precursor (HB-EGF)",EpiDerm tissues; vs 0.1% DMSO control,+5.09 fold
same,"Fold Change, IGSF1 Immunoglobulin superfamily, member 1 isoform 1",EpiDerm tissues; vs 0.1% DMSO control,+2.81 fold
same,"Fold Change, IGSF3 Immunoglobulin superfamily, member 3 isoform 2",EpiDerm tissues; vs 0.1% DMSO control,+3.39 fold
same,"Fold Change, ITG5 Integrin beta-5 precursor (Table 7)",EpiDerm tissues; vs 0.1% DMSO control,No effect
same,"Fold Change, ITGA6 Integrin alpha-6 precursor",EpiDerm tissues; vs 0.1% DMSO control,+3.57 fold
same,"Fold Change, ITGB2 Integrin beta-2-precursor",EpiDerm tissues; vs 0.1% DMSO control,−7.67 fold
same,"Fold Change, ITGB4 Integrin beta-4 precursor (Table 7)",EpiDerm tissues; vs 0.1% DMSO control,+7.98 fold
same,"Fold Change, ITGB6 Integrin beta-6-precursor (Table 7)",EpiDerm tissues; vs 0.1% DMSO control,+7.71 fold
same,"Fold Change, ITGB8 Integrin beta-8 precursor (Table 3)",EpiDerm tissues; vs 0.1% DMSO control,+3.90 fold
same,"Fold Change, ITGB8 Integrin beta-8 precursor (Table 7)",EpiDerm tissues; vs 0.1% DMSO control,+3.90 fold
same,"Fold Change, Insulin growth factor-like family member 3 precursor (IGBP-3)",EpiDerm tissues; vs 0.1% DMSO control,−8.67 fold
same,"Fold Change, Insulin growth factor-like family member 4 precursor (IGBP-4)",EpiDerm tissues; vs 0.1% DMSO control,+2.41 fold
